Like-named read-outs stand apart in the source and are kept apart here.
Experiments:
[1] = snar bond
[2] = target: CFTR-mediated chloride transport (Homo sapiens, UniProt P13569); type: cell-based; conditions: enteroid cells incubated with test compound 18-24 hours, acute 10 μM forskolin and 300 nM Compound III; for Max. Activity: % of chloride transport with 3 μM Compound A, 3 μM Compound II and 300 nM acute Compound III triple combination control
Method in brief: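 Membrane-potential fluorescence AUC over 15 min quantified CFTR chloride transport after acute forskolin (10 μM), IBMX (100 μM) and Compound III (300 nM) in chloride-free buffer. Human enteroid cells were pretreated with compound for 18–24 h; % Activity is relative to 3 μM Compound A + 3 μM Compound II + 300 nM Compound III.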

Sequence of CFTR-mediated chloride transport (P13569 whole entry, looked up): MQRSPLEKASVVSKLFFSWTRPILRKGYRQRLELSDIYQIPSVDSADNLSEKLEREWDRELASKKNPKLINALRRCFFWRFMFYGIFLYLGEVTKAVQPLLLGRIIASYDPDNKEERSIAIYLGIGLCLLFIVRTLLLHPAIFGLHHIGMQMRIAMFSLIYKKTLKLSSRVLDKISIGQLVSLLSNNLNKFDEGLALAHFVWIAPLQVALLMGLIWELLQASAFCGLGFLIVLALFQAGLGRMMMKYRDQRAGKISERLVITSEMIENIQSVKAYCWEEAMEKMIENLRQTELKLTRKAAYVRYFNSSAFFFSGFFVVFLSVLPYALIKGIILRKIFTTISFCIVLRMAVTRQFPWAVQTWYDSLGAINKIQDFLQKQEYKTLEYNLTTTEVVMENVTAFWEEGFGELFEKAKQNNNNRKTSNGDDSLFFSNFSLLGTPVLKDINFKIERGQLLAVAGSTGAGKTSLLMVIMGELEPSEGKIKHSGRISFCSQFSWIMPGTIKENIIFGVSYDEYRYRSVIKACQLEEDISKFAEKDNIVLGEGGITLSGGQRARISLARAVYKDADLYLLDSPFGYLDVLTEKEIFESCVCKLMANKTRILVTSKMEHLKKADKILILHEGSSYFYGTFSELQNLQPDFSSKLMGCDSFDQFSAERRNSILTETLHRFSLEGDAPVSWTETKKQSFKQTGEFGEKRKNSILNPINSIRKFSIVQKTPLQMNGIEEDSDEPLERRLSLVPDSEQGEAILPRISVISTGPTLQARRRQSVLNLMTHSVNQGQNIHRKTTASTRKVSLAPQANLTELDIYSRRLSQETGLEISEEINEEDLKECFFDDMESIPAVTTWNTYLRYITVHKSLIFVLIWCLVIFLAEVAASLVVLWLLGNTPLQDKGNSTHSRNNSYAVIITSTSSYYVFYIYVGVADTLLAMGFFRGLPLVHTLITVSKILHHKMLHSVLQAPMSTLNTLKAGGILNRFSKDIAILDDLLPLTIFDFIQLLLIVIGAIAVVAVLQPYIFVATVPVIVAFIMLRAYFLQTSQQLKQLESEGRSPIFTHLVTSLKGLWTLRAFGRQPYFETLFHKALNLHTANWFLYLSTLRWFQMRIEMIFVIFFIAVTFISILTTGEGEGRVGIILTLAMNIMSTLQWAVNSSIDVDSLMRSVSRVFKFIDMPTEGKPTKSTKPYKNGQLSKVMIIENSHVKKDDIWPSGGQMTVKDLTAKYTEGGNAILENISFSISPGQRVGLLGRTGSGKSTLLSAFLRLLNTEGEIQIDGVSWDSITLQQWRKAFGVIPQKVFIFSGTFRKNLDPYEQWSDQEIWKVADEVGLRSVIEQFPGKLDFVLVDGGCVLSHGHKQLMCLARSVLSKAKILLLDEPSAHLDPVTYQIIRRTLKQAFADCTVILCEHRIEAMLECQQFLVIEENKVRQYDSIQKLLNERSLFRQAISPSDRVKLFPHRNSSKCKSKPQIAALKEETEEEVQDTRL

SMILES | EC50 [2] [nM] | Max. Activity [2] | also measured
CC1(C)CC2CCCCOc3ccc(cc3)S(=O)(=O)NC(=O)c3ccc(-n4ccc(OCCC5(C(F)(F)F)CC5)n4)nc3N1C2 (racemic) [Compound 89, 12,12-dimethyl-8-(3-{2-[1-(trifluoromethyl)cyclopropyl]ethoxy}-1H-pyrazol-1-yl)-19-oxa-2λ^6-thia-3,9,11-triazatetracyclo[18.2.2.111,14.05,10]pentacosa-1(22),5,7,9,20,23-hexaene-2,2,4-trione] | < 1000 | ++ (++ is 30-60%) | ring closure, isolated yield ([1]; from CC1(C)CC(CCCCOc2ccc(S(=O)(=O)NC(=O)c3ccc(-n4ccc(OCCC5(C(F)(F)F)CC5)n4)nc3Cl)cc2)CN1, 17-membered ring, K2CO3/CsF/3A MS, DMSO, 36.5 mM, 165.0 °C, 18.0 h): 21%
CC1(C)CC2CCCCn3cc(cn3)S(=O)(=O)NC(=O)c3ccc(-n4ccc(OCCC5(C(F)(F)F)CC5)n4)nc3N1C2 (stereo not drawn) [Compound 122, 21,21-Dimethyl-4-(3-{2-[1-(trifluoromethyl)cyclopropyl]ethoxy}-1H-pyrazol-1-yl)-10λ^6-thia-1,3,9,13,14-pentaazatetracyclo[17.2.1.111,14.02,7]tricosa-2,4,6,11(23),12-pentaene-8,10,10-trione] | < 1000 | ++ (++ is 30-60%) | ring closure, isolated yield ([1]; from CC(C)(C)OC(=O)N1CC(CCCCn2cc(S(=O)(=O)NC(=O)c3ccc(-n4ccc(OCCC5(C(F)(F)F)CC5)n4)nc3Cl)cn2)CC1(C)C, 15-membered ring, K2CO3/CsF/3A MS, DMSO, 41.5 mM, 155.0 °C, 2 steps): 50%
CC1(C)CC2CCCCc3ccc(cc3)S(=O)(=O)NC(=O)c3ccc(-n4ccc(OCCC5(C(F)(F)F)CC5)n4)nc3N1C2 (stereo not drawn) [Compound 52, 12,12-dimethyl-8-(3-{2-[1-(trifluoromethyl)cyclopropyl]ethoxy}-1H-pyrazol-1-yl)-2λ^6-thia-3,9,11-triazatetracyclo[17.2.2.111,14.05,10]tetracosa-1(21),5,7,9,19,22-hexaene-2,2,4-trione] | < 1000 | ++ (++ is 30-60%) | ring closure, isolated yield ([1]; from CC1(C)CC(CCCCc2ccc(S(=O)(=O)NC(=O)c3ccc(-n4ccc(OCCC5(C(F)(F)F)CC5)n4)nc3Cl)cc2)CN1, 16-membered ring, K2CO3/CsF/3A MS, DMSO, 37.4 mM, 155.0 °C): 26%
CC1(C)CC2CCCOc3cccc(n3)S(=O)(=O)NC(=O)c3ccc(-n4ccc(OCCC5(C(F)(F)F)CC5)n4)nc3N1C2 (racemic) [Compound 40, 12,12-dimethyl-8-(3-{2-[1-(trifluoromethyl)cyclopropyl]ethoxy}-1H-pyrazol-1-yl)-18-oxa-2λ^6-thia-3,9,11,23-tetraazatetracyclo[17.3.1.111,14.05,10]tetracosa-1(22),5,7,9,19(23),20-hexaene-2,2,4-trione] | < 1000 | ++ (++ is 30-60%) | ring closure, isolated yield ([1]; from CC1(C)CC(CCCOc2cccc(S(=O)(=O)NC(=O)c3ccc(-n4ccc(OCCC5(C(F)(F)F)CC5)n4)nc3Cl)n2)CN1, 15-membered ring, K2CO3/CsF/3A MS, DMSO, 37.3 mM, 150.0 °C, 8.0 h): 48%
CC1(C)CC2CNc3cccc(n3)S(=O)(=O)NC(=O)c3ccc(-n4ccc(OCCC5(C(F)(F)F)CC5)n4)nc3N1C2 (stereo not drawn) [Compound 17, 6,6-dimethyl-10-(3-{2-[1-(trifluoromethyl)cyclopropyl]ethoxy}-1H-pyrazol-1-yl)-16λ^6-thia-2,7,9,15,21-pentaazatetracyclo[15.3.1.14,7.08,13]docosa-1(20),8,10,12,17(21),18-hexaene-14,16,16-trione] | 1000 to 3000 | ++ (++ is 30-60%) | ring closure, isolated yield ([1]; from CC(C)(C)OC(=O)N1CC(CNc2cccc(S(=O)(=O)NC(=O)c3ccc(-n4ccc(OCCC5(C(F)(F)F)CC5)n4)nc3Cl)n2)CC1(C)C, 13-membered ring, K2CO3/CsF/3A MS, DMSO, 45.0 mM, 155.0 °C, 2 steps): 57%
CC1(C)C[C@H]2CCCNc3cccc(n3)S(=O)(=O)NC(=O)c3ccc(-n4ccc(OCCC5C6(CC6)C56CC6)n4)nc3N1C2 [Compound 194, (14R)-8-[3-(2-{Dispiro[2.0.2.1]heptan-7-yl}ethoxy)-1H-pyrazol-1-yl]-12,12-dimethyl-2λ^6-thia-3,9,11,18,23-pentaazatetracyclo[17.3.1.111,14.05,10]tetracosa-1(22),5,7,9,19(23),20-hexaene-2,2,4-trione] | < 1000 | ++ (++ is 30-60%) | ring closure, isolated yield ([1]; from CC1(C)C[C@@H](CCCNc2cccc(S(=O)(=O)NC(=O)c3ccc(-n4ccc(OCCC5C6(CC6)C56CC6)n4)nc3Cl)n2)CN1, 15-membered ring, K2CO3, NMP, 72.4 mM, 135.0 °C, 22.0 h): 57%
Cc1cc2nn1CCCC1CN(c3nc(-n4ccc(OCCC5(C(F)(F)F)CC5)n4)ccc3C(=O)NS2(=O)=O)C(C)(C)C1 (stereo not drawn) [Compound 144, 13,20,20-Trimethyl-4-(3-{2-[1-(trifluoromethyl)cyclopropyl]ethoxy}-1H-pyrazol-1-yl)-10λ^6-thia-1,3,9,14,22-pentaazatetracyclo[16.2.1.111,14.02,7]docosa-2,4,6,11(22),12-pentaene-8,10,10-trione] | < 1000 | ++ (++ is 30-60%) | ring closure, isolated yield ([1]; from Cc1cc(S(=O)(=O)NC(=O)c2ccc(-n3ccc(OCCC4(C(F)(F)F)CC4)n3)nc2Cl)nn1CCCC1CN(C(=O)OC(C)(C)C)C(C)(C)C1, 14-membered ring, K2CO3/CsF/3A MS, DMSO, 44.1 mM, 155.0 °C, 2 steps): 38%
